The record followed here is ChEMBL document CHEMBL5143704, “Discovery of 2,4-diarylaminopyrimidine derivatives bearing dithiocarbamate moiety as novel ALK inhibitors” (Bioorg Med Chem, 2022).

The test system of one experiment is NCI-H2228. Nature of the experiment: cells. The conditions noted are these: Homo sapiens, NCI-H2228, 96 h.
The test system of another experiment is A549. Briefly: cells. The conditions noted are these: Homo sapiens, A549, 96 h.
A further experiment relates to KARPAS-299. Nature of the experiment: cells. The conditions noted are these: Homo sapiens, KARPAS-299, 96 h.
A further experiment concerns HCT-116. Briefly: cells. The conditions noted are these: Homo sapiens, HCT-116, 96 h.
The target in experiment [1] is ALK tyrosine kinase receptor (Homo sapiens, UniProt Q9UM73). Briefly: Inhibition of wild type N-terminal GST tagged ALK cytoplasmic domain (1058 to 1620 end residues) (unknown origin) expressed in Sf21 cells incubated for 1 hr in presence of ATP.

pIC50: −log10 of the molar value.

As usually defined, the pIC50 is −log10 of the IC50, conventionally taken in molar units.

Sequence of ALK tyrosine kinase receptor (Q9UM73 whole entry, the tested form may be a part): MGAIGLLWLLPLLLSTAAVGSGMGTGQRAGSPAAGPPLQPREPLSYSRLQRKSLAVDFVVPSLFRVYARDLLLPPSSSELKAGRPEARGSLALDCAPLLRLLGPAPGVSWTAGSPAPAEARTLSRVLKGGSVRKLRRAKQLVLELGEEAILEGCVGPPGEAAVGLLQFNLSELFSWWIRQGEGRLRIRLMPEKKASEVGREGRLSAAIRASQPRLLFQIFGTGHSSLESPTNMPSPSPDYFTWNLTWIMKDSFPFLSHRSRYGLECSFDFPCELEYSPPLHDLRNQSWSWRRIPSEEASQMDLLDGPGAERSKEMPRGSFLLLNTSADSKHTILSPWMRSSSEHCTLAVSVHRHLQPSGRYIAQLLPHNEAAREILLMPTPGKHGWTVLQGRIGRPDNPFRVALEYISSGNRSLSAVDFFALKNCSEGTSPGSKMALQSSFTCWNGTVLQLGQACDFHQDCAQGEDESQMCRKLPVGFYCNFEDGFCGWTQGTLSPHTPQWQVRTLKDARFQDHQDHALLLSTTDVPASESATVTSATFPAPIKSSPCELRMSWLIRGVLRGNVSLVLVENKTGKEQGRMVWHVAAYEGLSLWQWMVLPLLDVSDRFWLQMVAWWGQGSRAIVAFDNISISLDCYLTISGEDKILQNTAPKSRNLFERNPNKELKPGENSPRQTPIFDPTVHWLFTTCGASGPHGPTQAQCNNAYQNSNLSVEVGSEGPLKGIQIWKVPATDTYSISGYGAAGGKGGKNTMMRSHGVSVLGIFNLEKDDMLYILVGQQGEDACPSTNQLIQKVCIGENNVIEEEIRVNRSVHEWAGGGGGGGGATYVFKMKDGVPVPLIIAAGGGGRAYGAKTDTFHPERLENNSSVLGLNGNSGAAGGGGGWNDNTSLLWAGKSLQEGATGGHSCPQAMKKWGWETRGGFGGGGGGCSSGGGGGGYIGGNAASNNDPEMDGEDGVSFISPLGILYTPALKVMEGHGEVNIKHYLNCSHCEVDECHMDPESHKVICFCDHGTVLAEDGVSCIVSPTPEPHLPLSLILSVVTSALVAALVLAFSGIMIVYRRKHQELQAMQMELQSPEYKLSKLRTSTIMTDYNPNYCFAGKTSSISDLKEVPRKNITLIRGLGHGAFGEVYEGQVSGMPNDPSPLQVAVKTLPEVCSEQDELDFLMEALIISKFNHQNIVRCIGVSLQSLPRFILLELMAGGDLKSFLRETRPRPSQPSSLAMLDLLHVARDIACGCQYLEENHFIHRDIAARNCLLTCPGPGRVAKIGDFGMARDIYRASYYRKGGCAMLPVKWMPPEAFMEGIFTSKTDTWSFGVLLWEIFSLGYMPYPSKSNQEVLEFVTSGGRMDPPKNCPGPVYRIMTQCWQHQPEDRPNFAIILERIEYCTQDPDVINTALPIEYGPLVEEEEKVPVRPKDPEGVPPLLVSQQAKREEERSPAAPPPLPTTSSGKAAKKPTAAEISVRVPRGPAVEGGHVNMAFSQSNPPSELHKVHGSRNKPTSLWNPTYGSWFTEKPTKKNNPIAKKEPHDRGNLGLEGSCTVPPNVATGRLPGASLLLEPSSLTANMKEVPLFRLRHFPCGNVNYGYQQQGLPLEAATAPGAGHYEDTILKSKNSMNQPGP
Description for A549: Antiproliferative activity against ALK-negative human A549 cells assessed as inhibition of cell growth incubated for 96 hrs by MTT assay
Description for HCT-116: Antiproliferative activity against ALK-negative human HCT-116 cells assessed as inhibition of cell growth incubated for 96 hrs by MTT assay
Description for KARPAS-299: Antiproliferative activity against NPM-ALK positive human KARPAS-299 cells assessed as inhibition of cell growth incubated for 96 hrs by CCK-8 assay
Description for NCI-H2228: Antiproliferative activity against EML4-ALK positive human NCI-H2228 cells assessed as inhibition of cell growth incubated for 96 hrs by MTT assay

Turning to `Cc1cc(Nc2ncc(Cl)c(Nc3ccccc3S(=O)(=O)C(C)C)n2)c(OC(C)C)cc1C1CCN(C(=O)SCC(=S)N2CCOCC2)CC1`, the pIC50 in the experiment on NCI-H2228 was 6.19; with A549, less than 5.00; with KARPAS-299, 6.92; in the experiment on HCT-116 it was 5.31.
Taken in the same sequence, the figures for `Cc1cc(Nc2ncc(Cl)c(Nc3ccccc3S(=O)(=O)C(C)C)n2)c(OC(C)C)cc1C1CCN(C(=S)SCC(=O)N(C)C)CC1` were 5.81, less than 5.00, 6.60 and 5.23.
Consider `Cc1cc(Nc2ncc(Cl)c(Nc3ccccc3S(=O)(=O)C(C)C)n2)c(OC(C)C)cc1C1CCN(C(=S)SCCN2CCCCC2)CC1`, for which the pIC50 was 6.55 in the experiment with NCI-H2228; less than 7.00 in experiment [1]; less than 5.00 in the experiment on A549; 7.05 in the experiment on KARPAS-299; 5.61 in the experiment with HCT-116.
As for `Cc1cc(Nc2ncc(Cl)c(Nc3ccccc3S(=O)(=O)C(C)C)n2)c(OC(C)C)cc1C1CCN(C(=S)SCCN2CCCC2)CC1`, the pIC50 is 6.55 with NCI-H2228, 5.76 in the experiment with A549, 6.66 in the experiment with KARPAS-299 and 5.33 in the experiment with HCT-116.
The matching figures for `Cc1cc(Nc2ncc(Cl)c(Nc3ccccc3S(=O)(=O)C(C)C)n2)c(OC(C)C)cc1C1CCN(C(=O)SCC(=S)N2CCCC2)CC1`: 5.92, less than 5.00, 6.07 and 5.50.
As for `Cc1cc(Nc2ncc(Cl)c(Nc3ccccc3S(=O)(=O)C(C)C)n2)c(OC(C)C)cc1C1CCN(C(=S)SCC(=O)N2CCCCC2)CC1`, the pIC50 is 5.88 in the experiment on NCI-H2228, less than 5.00 in the experiment on A549, 6.82 in the experiment on KARPAS-299 and 5.48 in the experiment with HCT-116.
On to `Cc1cc(Nc2ncc(Cl)c(Nc3ccccc3S(=O)(=O)C(C)C)n2)c(OC(C)C)cc1C1CCN(C(=O)SCC(=S)N2CCNC(C)C2)CC1` (stereo not given), for which the pIC50 was 6.80 in the experiment on NCI-H2228; less than 7.00 in experiment [1]; less than 5.00 in the experiment with A549; 6.68 with KARPAS-299; 5.55 in the experiment on HCT-116.
Take `Cc1cc(Nc2ncc(Cl)c(Nc3ccccc3S(=O)(=O)C(C)C)n2)c(OC(C)C)cc1C1CCN(C(=O)SCC(=S)N2CCN(CCO)CC2)CC1`: the negative-log IC50 (pIC50) in the experiment with NCI-H2228 is 6.92; with A549, less than 5.00; in the experiment with KARPAS-299, 7.10; with HCT-116, 5.82.
Take `Cc1cc(Nc2ncc(Cl)c(Nc3ccccc3S(=O)(=O)C(C)C)n2)c(OC(C)C)cc1C1CCN(C(=O)SCC(=S)N2CCN(S(C)(=O)=O)CC2)CC1`: the negative logarithm of the IC50 (pIC50) with NCI-H2228 is 6.80; with A549, less than 5.00; with KARPAS-299, 6.47; with HCT-116 it was 5.45.
Taken in the same sequence, the figures for `Cc1cc(Nc2ncc(Cl)c(Nc3ccccc3S(=O)(=O)C(C)C)n2)c(OC(C)C)cc1C1CCN(C(=S)SCC(=O)NC2CCC2)CC1` were 6.35, less than 5.00, 6.85 and 5.15.
Regarding `Cc1cc(Nc2ncc(Cl)c(Nc3ccccc3S(=O)(=O)C(C)C)n2)c(OC(C)C)cc1C1CCN(C(=O)SCC(=S)N2CCN(C)CC2)CC1`, the pIC50 in the experiment with NCI-H2228 was 6.49; in experiment [1] it was less than 7.00; in the experiment with A549, less than 5.00; in the experiment with KARPAS-299, 6.85; with HCT-116, 5.57.
In the case of `Cc1cc(Nc2ncc(Cl)c(Nc3ccccc3S(=O)(=O)C(C)C)n2)c(OC(C)C)cc1C1CCN(C(=S)SCC(=O)NC(C)C)CC1`, the pIC50 is 6.44 with NCI-H2228, less than 5.00 with A549, 6.85 in the experiment with KARPAS-299 and less than 5.00 with HCT-116.
For the compound `Cc1cc(Nc2ncc(Cl)c(Nc3ccccc3S(=O)(=O)C(C)C)n2)c(OC(C)C)cc1C1CCN(C(=S)SCC(=O)N2CCSCC2)CC1`, the pIC50 in the experiment on NCI-H2228 was 6.20; with A549, less than 5.00; with KARPAS-299, 7.10; in the experiment on HCT-116 it was 5.41.
Taken in the same sequence, the figures for `Cc1cc(Nc2ncc(Cl)c(Nc3ccccc3S(=O)(=O)C(C)C)n2)c(OC(C)C)cc1C1CCN(C(=S)SCC(=O)N2CCC(C)CC2)CC1` were 5.69, less than 5.00, 6.51 and 5.26.
For `Cc1cc(Nc2ncc(Cl)c(Nc3ccccc3S(=O)(=O)C(C)C)n2)c(OC(C)C)cc1C1CCN(C(=O)SCC(=S)N2CCC[C@H]2CO)CC1`, the pIC50 in the experiment with NCI-H2228 is 6.66; in the experiment on A549, less than 5.00; with KARPAS-299, 6.96; with HCT-116, 5.31.
On to `Cc1cc(Nc2ncc(Cl)c(Nc3ccccc3S(=O)(=O)C(C)C)n2)c(OC(C)C)cc1C1CCN(C(=S)SCC(N)=O)CC1`, for which the pIC50 in the experiment with NCI-H2228 is 6.57; with A549 it was less than 5.00; in the experiment on KARPAS-299 it was 6.74; in the experiment with HCT-116, 5.09.
The matching figures for `Cc1cc(Nc2ncc(Cl)c(Nc3ccccc3S(=O)(=O)C(C)C)n2)c(OC(C)C)cc1C1CCN(C(=S)SCC(=O)N2CCOCC2)CC1`: 5.80, less than 5.00, 7.00 and less than 5.00.
Take `Cc1cc(Nc2ncc(Cl)c(Nc3ccccc3S(=O)(=O)C(C)C)n2)c(OC(C)C)cc1C1CCN(C(=O)SCC(=S)N2CC(C)N(C)C(C)C2)CC1` (stereo not given): the pIC50 is 6.68 with NCI-H2228; less than 7.00 in experiment [1]; less than 5.00 in the experiment with A549; 7.00 with KARPAS-299; 5.40 in the experiment on HCT-116.
Taken in the same sequence, the figures for `Cc1cc(Nc2ncc(Cl)c(Nc3ccccc3S(=O)(=O)C(C)C)n2)c(OC(C)C)cc1C1CCN(C(=S)SCCN2CCN(C)CC2)CC1` were 6.57, less than 7.00, less than 5.00, 6.77 and 5.66.
Consider `Cc1cc(Nc2ncc(Cl)c(Nc3ccccc3S(=O)(=O)C(C)C)n2)c(OC(C)C)cc1C1CCN(C(=O)SCC(=S)N(C)C)CC1`, for which the pIC50 is 6.07 in the experiment on NCI-H2228, less than 5.00 in the experiment on A549, 6.64 in the experiment with KARPAS-299 and 5.56 in the experiment with HCT-116.
The matching figures for `Cc1cc(Nc2ncc(Cl)c(Nc3ccccc3S(=O)(=O)C(C)C)n2)c(OC(C)C)cc1C1CCN(C(=O)SCC(=S)N2CCN(C3CCCC3)CC2)CC1`: 6.46, less than 5.00, 5.77 and 5.24.
Take `CCN(CC)CCSC(=S)N1CCC(c2cc(OC(C)C)c(Nc3ncc(Cl)c(Nc4ccccc4S(=O)(=O)C(C)C)n3)cc2C)CC1`: the pIC50 in the experiment on NCI-H2228 is 6.64; in the experiment with A549, less than 5.00; in the experiment with KARPAS-299, 6.59; with HCT-116, 6.01.
Taken in the same sequence, the figures for `Cc1cc(Nc2ncc(Cl)c(Nc3ccccc3S(=O)(=O)C(C)C)n2)c(OC(C)C)cc1C1CCN(C(=S)SCC(=O)NC2CCCCC2)CC1` were 5.58, less than 5.00, 6.23 and 5.11.
The matching figures for `CCN(CC)C(=S)CSC(=O)N1CCC(c2cc(OC(C)C)c(Nc3ncc(Cl)c(Nc4ccccc4S(=O)(=O)C(C)C)n3)cc2C)CC1`: 5.91, less than 5.00, 6.36 and 5.60.
Taken in the same sequence, the figures for `Cc1cc(Nc2ncc(Cl)c(Nc3ccccc3S(=O)(=O)C(C)C)n2)c(OC(C)C)cc1C1CCN(C(=S)SCCN(C)C)CC1` were 6.74, less than 5.00, 6.96 and 5.97.
On to `Cc1cc(Nc2ncc(Cl)c(Nc3ccccc3S(=O)(=O)C(C)C)n2)c(OC(C)C)cc1C1CCN(C(=O)SCC(=S)N(C)CCN(C)C)CC1`, for which the pIC50 in the experiment on NCI-H2228 was 6.43; with A549, less than 5.00; in the experiment with KARPAS-299, 6.32; in the experiment on HCT-116 it was 5.18.
Taken in the same sequence, the figures for `Cc1cc(Nc2ncc(Cl)c(Nc3ccccc3S(=O)(=O)C(C)C)n2)c(OC(C)C)cc1C1CCN(C(=S)SCCN2CCOCC2)CC1` were 6.77, less than 5.00, 6.49 and 5.42.
For `Cc1cc(Nc2ncc(Cl)c(Nc3ccccc3S(=O)(=O)C(C)C)n2)c(OC(C)C)cc1C1CCNCC1` [CERITINIB], the pIC50 in the experiment with NCI-H2228 is 7.52; with HCT-116, 5.97.
With `Cc1cc(Nc2ncc(Cl)c(Nc3ccccc3S(=O)(=O)C(C)C)n2)c(OC(C)C)cc1C1CCN(C(=O)SCC(=S)N2CCCCC2)CC1`, the pIC50 with NCI-H2228 is 6.42; in the experiment on A549 it was less than 5.00; in the experiment on KARPAS-299 it was 6.82; with HCT-116, 5.47.
Turning to `CCN(CC)CCCSC(=S)N1CCC(c2cc(OC(C)C)c(Nc3ncc(Cl)c(Nc4ccccc4S(=O)(=O)C(C)C)n3)cc2C)CC1`, the pIC50 with NCI-H2228 was 6.31; in experiment [1], less than 7.00; in the experiment on A549, less than 5.00; in the experiment on KARPAS-299, 6.30; in the experiment with HCT-116, less than 5.00.
Regarding `Cc1cc(Nc2ncc(Cl)c(Nc3ccccc3S(=O)(=O)C(C)C)n2)c(OC(C)C)cc1C1CCN(C(=S)SCC(=O)NC2CCCC2)CC1`, the pIC50 was 6.39 with NCI-H2228, less than 5.00 with A549, 6.89 with KARPAS-299 and 5.45 with HCT-116.
The matching figures for `CCN1CCN(C(=S)CSC(=O)N2CCC(c3cc(OC(C)C)c(Nc4ncc(Cl)c(Nc5ccccc5S(=O)(=O)C(C)C)n4)cc3C)CC2)CC1`: 6.89, less than 5.00, 6.49 and 5.69.
As to `Cc1cc(Nc2ncc(Cl)c(Nc3ccccc3S(=O)(=O)C(C)C)n2)c(OC(C)C)cc1C1CCN(C(=O)SCC(=S)N2CCSCC2)CC1`, the pIC50 in the experiment with NCI-H2228 is 6.46; in the experiment with A549, less than 5.00; in the experiment on KARPAS-299, 6.64; in the experiment on HCT-116, 5.28.
Taken in the same sequence, the figures for `CCN(CC)C(=O)CSC(=S)N1CCC(c2cc(OC(C)C)c(Nc3ncc(Cl)c(Nc4ccccc4S(=O)(=O)C(C)C)n3)cc2C)CC1` were 6.07, less than 5.00, 6.57 and 5.32.
